Values of other authors, collected in patent publication US10485789B2, “Compositions and methods for targeting receptors expressed in the gut” (Sensor Pharmaceuticals, Inc., priority 2014, dated 2019).

Tested on: DSS injury model
Details: mice pretreated with antibiotics

## O=C(O)c1cccnc1 [niacin]
  effect in the DSS injury model: dramatic effect
